Source: patent publication US6605609B2, “Thizaine oxazolidinone” (Pharmacia & Upjohn Company, priority 2000, dated 2003)
In brackets after ≈: the same amount, converted by molar mass.

Columns and labels:
[1] = system: S. aureus (52 isolates), methicillin-resistant; assay: MIC by agar dilution (MIC90); assay type: cell-based, Staphylococcus aureus; conditions: minimum inhibitory concentration required to inhibit 90% of the isolates
Text: The in vitro activity of the compound of this invention can be assessed by standard testing procedures such as the determination of minimum inhibitory concentration (MIC) by agar dilution as described in “Approved Standard. Methods for Dilution Antimicrobial Susceptibility Tests for Bacteria That Grow Aerobically”, 3rd. ed., published 1993 by the National Committee for Clinical Laboratory Standards, Villanova, Pa., USA.

[2] = Loss during and following terminal moist heat sterilization in container; assay type: physicochemical; conditions: container-solution contact surface made of at least 50% polyolefin
Text: When terminally moist heat sterilizing an IV solution, the solution is placed in the container in which (1) it will be stored and then transferred to the container from which it will ultimately be administered, or (2) stored and then ultimately administered from the same container to deliver the IV solution to the patient. […] What is essential is that the container-solution contact surface material be primarily a polyolefin; the remainder of the container can be made from polyolefin or other materials. It is preferred that the container-solution contact surface is made of from about 50 to about 100% polyolefin. It is more preferred that the container-solution contact surface is made of from about 70 to about 90% polyolefin. It is more preferred that the container-solution contact surface is made of from about 80% polyolefin. It is even more preferred that the container-solution contact surface is made of polyolefin.

Row | SMILES | MIC90 S. aureus (52 isolates), methicillin-resistant [1] [µg/mL] | melting point [°C] | loss of the compound during and following terminal moist heat sterilization [2]
1 | CC(=O)NC[C@H]1CN(c2cc(F)c(N3CCS(=O)(=O)CC3)c(F)c2)C(=O)O1 [The compound of formula I, N-({(5S)-3-[4-(1,1-dioxido-4-thiomorpholinyl)-3,5-difluorophenyl]-2-oxo-1,3-oxazolidin-5-yl}methyl)acetamide] | 2 | 187 to 189.5 | significantly much less loss
2 | CC(=O)NC[C@H]1CN(c2ccc(N3CCOCC3)c(F)c2)C(=O)O1 [linezolid, reference compound] | 4 (≈ 11.9 µM) | – | –
